Measured values: patent publication US20150148538A1, “USE OF AN H4 AGONIST MOLECULE TO TREAT ACUTE LEUKEMIA” (priority 2013, published 2015)

What was measured:
TF1 line = experiment: Proliferation inhibition of TF1 myeloid leukemia line (cell count or XTT test); format: cell-based
Protocol: (§1) The myeloid line is represented by the following clonal malignant cells: the HL60 line and the TF1 line. TF1 constitutively expresses the histamine H4 receptor and proliferates in response to GMCSF.
(§2) Tritoqualine, a mixture of 2 enantiomers, has been tested on this line between 10^−5 and 10^−7M with or without CB 10^−5M addition.
(§3) The TF1 line and the HL60 line are represented by inoculates of 100,000 cells in one milliliter incubated for 3 days with GM-CSF (10 ng/ml).
(§4) The reading is done on the third day and the number of cells in the proliferation phase is measured. […] Normally, all of the cells are in the proliferation phase when the cells are stimulated with GMCSF.
(§5) The results are expressed in proliferation inhibition % (n=3): The result is the Mean of the three tests performed.
(§6) The results are expressed in estimated proliferation inhibition % by cell count or by rock proliferation test. This test measures the incorporation of a dye when the cells are proliferating (XTT test).

HL60 line = experiment: Proliferation inhibition of HL60 myeloid leukemia line (cell count or XTT test); format: cell-based; conditions: tritoqualine at 10^-5; 3 days with GM-CSF 10 ng/ml; mean of n=3
Protocol: as §1, §2, §3, §4, §5, §6

Pre T line = experiment: Proliferation inhibition of Pre T lymphoid line (cell count or XTT test); format: cell-based
Protocol: (§7) The lymphoid line is represented by the following clonal malignant cells: the Pre T line and the Pro B line. The cells are cultured using the same technique as the myeloid lines.
(§8) The reading is done on the third day, and the number of cells in the proliferation phase is measured. The ratio between the cells in the proliferation phase and the cells that are not proliferating yields the percentage of cells in inhibition. Normally, all of the cells are in the proliferation phase when the cells are stimulated with GMCSF.
(§9) The results are expressed in proliferation inhibition % (n=3): The result is the Mean of the three tests done.
as §6

Pro B line = experiment: Proliferation inhibition of Pro B lymphoid line (cell count or XTT test); format: cell-based
Protocol: as §7, §8, §9, §6

Solubility in water = format: physicochemical; conditions: including with fetal calf serum added
Excerpt: We dilute the tritoqualine in dimethyl sulfoxide, also called DMSO.

histamine H4 receptor [1] = target: T1, histamine H4 receptor (Homo sapiens, UniProt Q9H3N8); experiment: Reversal of tritoqualine effect by a histamine H4 antagonist; format: cell-based; conditions: with a histamine H4 antagonist; myeloid cells
T1 sequence (Q9H3N8 whole entry, species assumed): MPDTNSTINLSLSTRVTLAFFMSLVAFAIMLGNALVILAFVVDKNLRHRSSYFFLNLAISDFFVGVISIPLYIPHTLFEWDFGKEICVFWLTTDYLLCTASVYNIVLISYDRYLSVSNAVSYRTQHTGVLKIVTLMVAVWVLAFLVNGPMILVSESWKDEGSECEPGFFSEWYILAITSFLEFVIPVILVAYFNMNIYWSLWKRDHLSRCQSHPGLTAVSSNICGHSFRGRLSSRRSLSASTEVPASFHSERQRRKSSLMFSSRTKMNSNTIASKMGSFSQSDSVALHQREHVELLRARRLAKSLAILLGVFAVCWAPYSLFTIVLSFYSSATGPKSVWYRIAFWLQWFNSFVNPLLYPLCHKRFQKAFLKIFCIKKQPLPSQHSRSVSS
Excerpt: This appears to indicate that the H4 agonist effect is indeed responsible for the activity of tritoqualine.

histamine H4 receptor [2] = target: T1, histamine H4 receptor; conditions: unit not given; cited from earlier work
[3] = white powder; breaks down into Cotarnine and phthalic acid; cited from earlier work

Compound: CCOc1c(N)c2c(c(OCC)c1OCC)C(C1c3c(cc4c(c3OC)OCO4)CCN1C)OC2=O (centres unmarked) [tritoqualine, (AMINO-7 TRIETHOXY-4,5,6 OXO-1 DIHYDRO-1,3 ISOBENZOFURANNYL-3)-1 METHOXY-8 METHYL-2METHYLENEDIOXY-6,7 TETRAHYDRO-,2,3,4 ISOQUINOLEINE]
- proliferation inhibition % of TF1 cells (TF1 line; tritoqualine at 10^-5, 3 days with GM-CSF 10 ng/ml, mean of n=3): approximately 58%
- proliferation inhibition % of HL60 cells (HL60 line): ~68%
- blocking of proliferation of Pre T cells (in words) (Pre T line): block the proliferation
- proliferation inhibition % of Pre T cells (Pre T line; at 10^-5, reading on third day, mean of n=3): approximately 45%
- blocking of proliferation of Pro B cells (in words) (Pro B line): not
- proliferation inhibition % of Pro B cells (Pro B line; at 10^-5, reading on third day, mean of n=3, equal to the control without product): 15%
- solubility in water (Solubility in water): low solubility
- effect of a histamine H4 antagonist on the effect of tritoqualine (histamine H4 receptor [1]): inhibits the effect of tritoqualine
- affinity (histamine H4 agonist) (histamine H4 receptor [2]): 10^−6
- sensitivity to light [3]: very sensitive to light

Compound: NC(=NCc1ccc(Cl)cc1)SCCCc1cnc[nH]1 [Clobenpropit]
- inhibition of proliferation of the myeloid line (in words) (TF1 line; 'this line' (myeloid, TF1), dose of 10^-5M): inhibits the proliferation
- blocking of proliferation of Pre T cells (in words) (Pre T line): block the proliferation
- blocking of proliferation of Pro B cells (in words) (Pro B line): not
- affinity (histamine H4 agonist) (histamine H4 receptor [2]): 10^−9
